# Results published in ChEMBL document CHEMBL3885861, “Open TG-GATES”.
# Species on record: Rattus norvegicus
# Test: Open TG-GATES - Regimen: Single
# Format: toxicity, organism-based, Sprague-Dawley
# Design: regimen Single, gender Male, age 6 weeks
# Settings: in vivo, po, route gavage; for APTT / Bas / Eos / Fbg / Hb / Ht / Lym / MCH / MCHC / MCV / Mono / Neu / Plat / RBC / Ret / WBC: tissue Blood; for KIDNEY_L / KIDNEY_R / KIDNEY_TOTAL: tissue Kidney; for LIVER: tissue Liver; for ALP / ALT / AST / CRE / DBIL / GLC / IP / K / LDH / Na / PL / RALB / TBIL / TC / TG / TP / gamma-GTP: tissue Plasma
# [1] = 0 mg/kg, 3 h, dose level Control
# [2] = 0 mg/kg, 6 h, dose level Control
# [3] = 0 mg/kg, 9 h, dose level Control
# [4] = 0 mg/kg, 24 h, dose level Control
smiles,measurement,setting,value
CN(C)CCC=C1c2ccccc2COc2ccccc21 [DOXEPIN],TERMINAL_BW,[1],197.6 g
same,APTT,[1],20.9 s
same,Bas,[1],0%
same,Eos,[1],0.8%
same,Fbg,[1],250.4 mg/dL
same,Hb,[1],13.6 g/dL
same,Ht,[1],41.4%
same,Lym,[1],77.4%
same,MCH,[1],21.2 pg
same,MCHC,[1],32.9%
same,MCV,[1],64.4 fL
same,Mono,[1],3.6%
same,Neu,[1],17.4%
same,Plat,[1],123.1 x10_4/uL
same,RBC,[1],644 x10_4/ul
same,Ret,[1],8.4%
same,WBC,[1],93.1 x10_2/uL
same,KIDNEY_L,[1],0.9 g
same,KIDNEY_R,[1],0.9 g
same,KIDNEY_TOTAL,[1],1.8 g
same,LIVER,[1],8.7 g
same,ALP,[1],1553 IU/L
same,ALT,[1],44 IU/L
same,AST,[1],77.8 IU/L
same,CRE,[1],0.2 mg/dL
same,DBIL,[1],0.006 mg/dL
same,GLC,[1],169.4 mg/dL
same,IP,[1],8.4 mg/dL
same,K,[1],4.2 meq/L
same,LDH,[1],84.6 IU/L
same,Na,[1],142.4 meq/L
same,PL,[1],140.8 mg/dL
same,RALB,[1],2.5 g/dL
same,TBIL,[1],0.056 mg/dL
same,TC,[1],74.8 mg/dL
same,TG,[1],58.2 mg/dL
same,TP,[1],5.3 g/dL
same,gamma-GTP,[1],1.2 IU/L
same,TERMINAL_BW,[2],196 g
same,APTT,[2],17.7 s
same,Bas,[2],0.2%
same,Eos,[2],0.8%
same,Fbg,[2],265.6 mg/dL
same,Hb,[2],13.6 g/dL
same,Ht,[2],41.4%
same,Lym,[2],79.2%
same,MCH,[2],21.8 pg
same,MCHC,[2],32.8%
same,MCV,[2],66.3 fL
same,Mono,[2],3%
same,Neu,[2],16.2%
same,Plat,[2],112.3 x10_4/uL
same,RBC,[2],624.8 x10_4/ul
same,Ret,[2],9.3%
same,WBC,[2],110.1 x10_2/uL
same,KIDNEY_L,[2],0.9 g
same,KIDNEY_R,[2],0.9 g
same,KIDNEY_TOTAL,[2],1.8 g
same,LIVER,[2],8.1 g
same,ALP,[2],1565.4 IU/L
same,ALT,[2],37.4 IU/L
same,AST,[2],77.2 IU/L
same,CRE,[2],0.2 mg/dL
same,DBIL,[2],0.004 mg/dL
same,GLC,[2],158.4 mg/dL
same,IP,[2],8.9 mg/dL
same,K,[2],4.1 meq/L
same,LDH,[2],80.2 IU/L
same,Na,[2],142.6 meq/L
same,PL,[2],143.6 mg/dL
same,RALB,[2],2.4 g/dL
same,TBIL,[2],0.06 mg/dL
same,TC,[2],76.4 mg/dL
same,TG,[2],49.2 mg/dL
same,TP,[2],5.3 g/dL
same,gamma-GTP,[2],1.2 IU/L
same,TERMINAL_BW,[3],195.7 g
same,APTT,[3],17.2 s
same,Bas,[3],0%
same,Eos,[3],1%
same,Fbg,[3],271.8 mg/dL
same,Hb,[3],13.2 g/dL
same,Ht,[3],39.9%
same,Lym,[3],77.8%
same,MCH,[3],21.5 pg
same,MCHC,[3],32.9%
same,MCV,[3],65.3 fL
same,Mono,[3],2.2%
same,Neu,[3],18.6%
same,Plat,[3],119.3 x10_4/uL
same,RBC,[3],612.4 x10_4/ul
same,Ret,[3],8.9%
same,WBC,[3],87 x10_2/uL
same,KIDNEY_L,[3],0.9 g
same,KIDNEY_R,[3],0.9 g
same,KIDNEY_TOTAL,[3],1.8 g
same,LIVER,[3],7.5 g
same,ALP,[3],1472.4 IU/L
same,ALT,[3],36.6 IU/L
same,AST,[3],71.2 IU/L
same,CRE,[3],0.2 mg/dL
same,DBIL,[3],0 mg/dL
same,GLC,[3],159.2 mg/dL
same,IP,[3],9.7 mg/dL
same,K,[3],3.9 meq/L
same,LDH,[3],95 IU/L
same,Na,[3],143 meq/L
same,PL,[3],125.8 mg/dL
same,RALB,[3],2.4 g/dL
same,TBIL,[3],0.058 mg/dL
same,TC,[3],70.6 mg/dL
same,TG,[3],33.6 mg/dL
same,TP,[3],5.3 g/dL
same,gamma-GTP,[3],1.2 IU/L
same,TERMINAL_BW,[4],214.2 g
same,APTT,[4],18.6 s
same,Bas,[4],0%
same,Eos,[4],1.2%
same,Fbg,[4],269 mg/dL
same,Hb,[4],13 g/dL
same,Ht,[4],38.8%
same,Lym,[4],76.4%
same,MCH,[4],21.7 pg
same,MCHC,[4],33.5%
same,MCV,[4],64.8 fL
same,Mono,[4],3%
same,Neu,[4],19%
same,Plat,[4],116.4 x10_4/uL
same,RBC,[4],600.2 x10_4/ul
same,Ret,[4],8.1%
same,WBC,[4],94.8 x10_2/uL
same,KIDNEY_L,[4],1 g
same,KIDNEY_R,[4],0.9 g
same,KIDNEY_TOTAL,[4],1.9 g
same,ALP,[4],2073 IU/L
same,ALT,[4],37.8 IU/L
same,AST,[4],75.6 IU/L
same,CRE,[4],0.2 mg/dL
same,DBIL,[4],0.004 mg/dL
same,GLC,[4],173.2 mg/dL
same,IP,[4],7.2 mg/dL
same,K,[4],4 meq/L
same,LDH,[4],106.6 IU/L
same,Na,[4],141.6 meq/L
same,PL,[4],153.8 mg/dL
same,RALB,[4],2.5 g/dL
same,TBIL,[4],0.04 mg/dL
same,TC,[4],80.2 mg/dL
same,TG,[4],89 mg/dL
same,TP,[4],5.6 g/dL
same,gamma-GTP,[4],1 IU/L
same,TERMINAL_BW,"100 mg/kg, 3 h, dose level Low",198.2 g
same,APTT,"100 mg/kg, 3 h, dose level Low",19.4 s
same,Bas,"100 mg/kg, 3 h, dose level Low",0%
same,Eos,"100 mg/kg, 3 h, dose level Low",1%
same,Fbg,"100 mg/kg, 3 h, dose level Low",282.4 mg/dL
same,Hb,"100 mg/kg, 3 h, dose level Low",13.1 g/dL
same,Ht,"100 mg/kg, 3 h, dose level Low",39.8%
same,Lym,"100 mg/kg, 3 h, dose level Low",79.6%
same,MCH,"100 mg/kg, 3 h, dose level Low",21.2 pg
same,MCHC,"100 mg/kg, 3 h, dose level Low",32.9%
same,MCV,"100 mg/kg, 3 h, dose level Low",64.4 fL
same,Mono,"100 mg/kg, 3 h, dose level Low",3%
same,Neu,"100 mg/kg, 3 h, dose level Low",16%
same,Plat,"100 mg/kg, 3 h, dose level Low",113.2 x10_4/uL
same,RBC,"100 mg/kg, 3 h, dose level Low",619.4 x10_4/ul
same,Ret,"100 mg/kg, 3 h, dose level Low",8.6%
same,WBC,"100 mg/kg, 3 h, dose level Low",80.4 x10_2/uL
same,KIDNEY_L,"100 mg/kg, 3 h, dose level Low",0.9 g
same,KIDNEY_R,"100 mg/kg, 3 h, dose level Low",0.9 g
same,KIDNEY_TOTAL,"100 mg/kg, 3 h, dose level Low",1.8 g
same,LIVER,"100 mg/kg, 3 h, dose level Low",8.6 g
same,ALP,"100 mg/kg, 3 h, dose level Low",1626.2 IU/L
same,ALT,"100 mg/kg, 3 h, dose level Low",39.4 IU/L
same,AST,"100 mg/kg, 3 h, dose level Low",69.2 IU/L
same,CRE,"100 mg/kg, 3 h, dose level Low",0.2 mg/dL
same,DBIL,"100 mg/kg, 3 h, dose level Low",0 mg/dL
same,GLC,"100 mg/kg, 3 h, dose level Low",182 mg/dL
same,IP,"100 mg/kg, 3 h, dose level Low",8.9 mg/dL
same,K,"100 mg/kg, 3 h, dose level Low",4.1 meq/L
same,LDH,"100 mg/kg, 3 h, dose level Low",82 IU/L
same,Na,"100 mg/kg, 3 h, dose level Low",143.8 meq/L
same,PL,"100 mg/kg, 3 h, dose level Low",159.6 mg/dL
same,RALB,"100 mg/kg, 3 h, dose level Low",2.5 g/dL
same,TBIL,"100 mg/kg, 3 h, dose level Low",0.046 mg/dL
same,TC,"100 mg/kg, 3 h, dose level Low",83.8 mg/dL
same,TG,"100 mg/kg, 3 h, dose level Low",57 mg/dL
same,TP,"100 mg/kg, 3 h, dose level Low",5.4 g/dL
same,gamma-GTP,"100 mg/kg, 3 h, dose level Low",1 IU/L
same,TERMINAL_BW,"100 mg/kg, 6 h, dose level Low",197.6 g
same,APTT,"100 mg/kg, 6 h, dose level Low",16.2 s
same,Bas,"100 mg/kg, 6 h, dose level Low",0%
same,Eos,"100 mg/kg, 6 h, dose level Low",1%
same,Fbg,"100 mg/kg, 6 h, dose level Low",282.2 mg/dL
same,Hb,"100 mg/kg, 6 h, dose level Low",13.1 g/dL
same,Ht,"100 mg/kg, 6 h, dose level Low",40.1%
same,Lym,"100 mg/kg, 6 h, dose level Low",75.8%
same,MCH,"100 mg/kg, 6 h, dose level Low",21.7 pg
same,MCHC,"100 mg/kg, 6 h, dose level Low",32.8%
same,MCV,"100 mg/kg, 6 h, dose level Low",66.4 fL
same,Mono,"100 mg/kg, 6 h, dose level Low",2.4%
same,Neu,"100 mg/kg, 6 h, dose level Low",20.2%
same,Plat,"100 mg/kg, 6 h, dose level Low",119.3 x10_4/uL
same,RBC,"100 mg/kg, 6 h, dose level Low",603.6 x10_4/ul
same,Ret,"100 mg/kg, 6 h, dose level Low",9.7%
same,WBC,"100 mg/kg, 6 h, dose level Low",94.4 x10_2/uL
same,KIDNEY_L,"100 mg/kg, 6 h, dose level Low",0.9 g
same,KIDNEY_R,"100 mg/kg, 6 h, dose level Low",0.9 g
same,KIDNEY_TOTAL,"100 mg/kg, 6 h, dose level Low",1.8 g
same,LIVER,"100 mg/kg, 6 h, dose level Low",8.1 g
same,ALP,"100 mg/kg, 6 h, dose level Low",1532.8 IU/L
same,ALT,"100 mg/kg, 6 h, dose level Low",37.4 IU/L
same,AST,"100 mg/kg, 6 h, dose level Low",71.4 IU/L
same,CRE,"100 mg/kg, 6 h, dose level Low",0.2 mg/dL
same,DBIL,"100 mg/kg, 6 h, dose level Low",0.004 mg/dL
same,GLC,"100 mg/kg, 6 h, dose level Low",175.2 mg/dL
same,IP,"100 mg/kg, 6 h, dose level Low",9.5 mg/dL
same,K,"100 mg/kg, 6 h, dose level Low",4 meq/L
same,LDH,"100 mg/kg, 6 h, dose level Low",71.6 IU/L
same,Na,"100 mg/kg, 6 h, dose level Low",144.6 meq/L
same,PL,"100 mg/kg, 6 h, dose level Low",140.6 mg/dL
same,RALB,"100 mg/kg, 6 h, dose level Low",2.5 g/dL
same,TBIL,"100 mg/kg, 6 h, dose level Low",0.054 mg/dL
same,TC,"100 mg/kg, 6 h, dose level Low",79.4 mg/dL
same,TG,"100 mg/kg, 6 h, dose level Low",27.2 mg/dL
same,TP,"100 mg/kg, 6 h, dose level Low",5.3 g/dL
same,gamma-GTP,"100 mg/kg, 6 h, dose level Low",1 IU/L
